As usually defined, the IC50 is the concentration at which inhibition is half-maximal. Read a high IC50 as weaker potency in that assay.

Structures are written as SMILES.

We go through one compound from patent US11685714B2, “Prodrugs of cytotoxic active agents having enzymatically cleavable groups” (BAYER PHARMA AKTIENGESELLSCHAFT, priority 2016, dated 2023).

Data set [1] can be described thus: Assay for determination of stability in rat plasma. It counts as in vitro ADME. The conditions noted are these: 1 μg/ml, 37° C., 24 h. How it is done:
To examine the stability of compounds A and B, 1 ml of rat plasma in a 1.5 ml Eppendorf tube in each case was equilibrated to 37° C. on an Eppendorf shaker. A stock solution (9 acetonitrile/1 DMSO) having a concentration of 100 μg/ml for compound A and compound B was prepared. 10 μl in each case of the stock solution were pipetted into 1 ml of equilibrated rat plasma, so as to give a concentration of 1 μg/ml.
The samples were kept at 450 rpm and 37° C. for 24 h. At each of the sampling times of 0, 0.25 h, 0.5 h, 1 h, 2 h, 4 h, 6 h and 24 h, 50 μl were taken and pipetted into 150 μl of methanol. Internal standard was included in the initial charge of methanol at a concentration of 0.05 μg/ml. After brief vortexing, 300 μl of 10 mM ammonium acetate buffer (pH 6.8) were added and centrifuged at 1881 g for 10 min. The samples were then analysed by means of RP-HPLC analysis and by LC-MS analysis.

Data set [2] concerns the target T1, motor domain of the human kinesin spindle protein KSP/Eg5 (Homo sapiens, UniProt P52732).
T1 construct: The motor domain of the human kinesin spindle protein KSP/Eg5; purchased tebu-bio/Cytoskeleton Inc 027EG01-XL
T1 sequence (P52732 18-359 limits assumed): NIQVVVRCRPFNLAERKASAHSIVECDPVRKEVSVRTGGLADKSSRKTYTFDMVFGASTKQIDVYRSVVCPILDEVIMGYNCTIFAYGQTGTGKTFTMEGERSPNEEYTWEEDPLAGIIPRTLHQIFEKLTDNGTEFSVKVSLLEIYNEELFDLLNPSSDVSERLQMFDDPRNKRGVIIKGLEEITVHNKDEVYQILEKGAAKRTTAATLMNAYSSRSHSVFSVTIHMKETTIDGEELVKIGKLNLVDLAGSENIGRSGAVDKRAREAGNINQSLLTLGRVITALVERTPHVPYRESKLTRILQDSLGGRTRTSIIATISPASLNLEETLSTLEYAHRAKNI
Kind of data set: Inhibition of the kinesin spindle protein KSP/Eg5 (ATPase activity, malachite green). It counts as biochemical. The conditions noted are these: 10 nM KSP/Eg5, microtubuli, 500 μM ATP, 2 h at RT. The method, then:
The motor domain of the human kinesin spindle protein KSP/Eg5 (tebu-bio/Cytoskeleton Inc, No. 027EG01-XL) was incubated in a concentration of 10 nM with microtubuli (bovine or porcine, tebu-bio/Cytoskeleton Inc) stabilized with 50 μg/ml taxol (Sigma No. T7191-5MG) for 5 min at RT in 15 mM PIPES, pH 6.8 (5 mM MgCl2 and 10 mM DTT, Sigma). […] Incubation was at RT for 2 h. ATPase activity was detected by detecting the inorganic phosphate formed using malachite green (Biomol). […] The positive controls used were monastrol (Sigma, M8515-1 mg) and ispinesib (AdooQ Bioscience A10486). The individual data of the dose-activity curve are eight-fold determinations. The IC50 values are means of two independent experiments.

Consider `CNC(=O)[C@H](CCN(C(=O)CO)[C@@H](c1cc(-c2cc(F)ccc2F)cn1Cc1ccccc1)C(C)(C)C)NC(=O)[C@H](CC(N)=O)NC(=O)[C@@H](C)NC(=O)[C@H](C)NC(=O)Cc1ccncc1` [Example R3r-LDL, N-(Pyridin-4-ylacetyl)-L-alanyl-D-alanyl-N^1-[(2S)-4-[{(1R)-1-[1-benzyl-4-(2,5-difluorophenyl)-1H-pyrrol-2-yl]-2,2-dimethylpropyl}(glycoloyl)amino]-1-(methylamino)-1-oxobutan-2-yl]-L-aspartamide], for which the “stability in rat plasma” value in data set [1] was “stable over 24 h”. Besides, the IC50 in data set [2] turned out to be 264 nM.
